Test results published in patent publication US10434098B2, “Deuterated dehydrophenylahistin compounds and preparation method thereof and use thereof in preparation of anti-tumor drugs” (MARINE BIOMEDICAL RESEARCH INSTITUTE OF QINGDAO CO., LTD., priority 2015, dated 2019).

Experiments:
Type in all cases: cell-based
[1] = system: human skin cancer cell strain A431; assay: MTT inhibition ratio on tumor cells A431; settings: for Inhibition ratio (%): 72 h, MTT; for activity of inhibiting tumors compared with positive control: A431, summary of Table 2
Description: (§1) The inhibition ratio of the selected compounds on tumor cells A431 and Jurkat is measured via the MTT analytical method.
(§2) 1) Cell strains: human skin cancer cell strain A431 and human acute T cell leukemia cell Jurkat. The ells grow in an RPMI-1640 culture medium and high glucose DMEM (Gibco BRL, Rockville, Md., USA)+10% fetal calf serum (containing 2 mM L-glutamine, penicillin and streptomycin), and putting them into an incubator at 37° C. (5% CO2-95% air) for growing, carrying out digestive passage with 0.25% trypsin, and changing the solution every 1 to 2 days.
(§3) 2) The dissolution and dilution of compounds: according to the molecular weight and mass of the compounds, preparing into a 10 mM of mother solution respectively using DMSO (SIGMA), and diluting to the required concentration of 100 μM (DMSO content≤3%o) with the RPMI-1640 culture medium. Storing the diluted drugs at temperature of −20° C.
(§4) 1) Cell inoculation: Taking cells in the logarithmic phase, after digestion with pancreatin, the cells disperse into single cells, counting, adjusting cell suspension to […], inoculating in the 96-well plates with 180 μL in each well, and making the amount of the inoculated cells is 4.0×10^3 cells/well. After cell attachment, adding the fresh culture media containing compounds with different concentrations respectively, making the concentrations of the compounds reach 12.5 nM and 6.25 nM, setting 3 duplicate wells for each concentration, operating in absence of light, and adjusting the content of DMSO in each concentration to be consistent.
(§5) 2) After drug incubation for 72 h, adding 20 μL of MTT (3-[4,5-dimethylthiazol-2-yl]-2,5-diphenyltetrazolium bromide, Sigma; 5 mg/mL) into each well, incubating in a incubator for 4 h, removing supernate, adding 150 μL of DMSO into each well for dissolving, and measuring absorbancy at 570 nm using the microplate reader. According to the formula: Inhibition ratio=[(A570 control well−A570 administration well)/A570 control well]×100%, to calculate the inhibition ratio of each concentration, and the result is shown in the table 2.

[2] = system: human acute T cell leukemia cell Jurkat; assay: MTT inhibition ratio on tumor cells Jurkat; settings: for Inhibition ratio (%): 72 h, MTT; for activity of inhibiting tumors compared with positive control: summary of Table 2
Description: as §1, §2, §3, §4, §5

[3] = system: intracellular microtubulin of human epidermal carcinoma A431; assay: High content imaging analysis of microtubulin (immunofluorescent staining, Alexa 488); settings: 12.5 nM, 24 h; for Alexa488 stained fluorescence intensity of microtubulin in the cells: versus blank and DMSO control, FIG. 3/4; for microtubulin distribution and cellular morphology / Alexa488 fluorescence intensity compared with the positive control Plinabulin: A431 cells; for microtubulin distribution and cellular morphology: FIG. 3; for Alexa488 fluorescence intensity compared with the positive control Plinabulin: FIG. 4
Description: Plinabulin (dehydro-phenylahistin) is used as positive control, and concentration is set as 12.5 nM. According to the data in earlier-stage, 3 kinds of samples are selected, i.e., compounds 1, 2 and 3. The concentrations of all samples are set as 12.5 nM. According to the experiment method for specific immunofluorescent staining (Alexa 488), the effect of the compounds 1, 2 and 3 on the expression of intracellular microtubulin of human epidermal carcinoma A431 is detected via the high content imaging analysis system. 1) Taking cells in the logarithmic phase, after digestion with pancreatin, the cells disperse into single cells counting, inoculating in the 96-well plates at 1.2×10^4 cells/well, putting at temperature of 37° C., culturing in a 5% CO2 incubator for 24 h until cell attachment. 2) After cell attachment, for experiment group, adding the fresh culture medium containing compounds with different concentrations respectively into each well, making the concentrations of the compounds reach 12.5 nM, and setting 3 duplicate wells for each concentration. In the control group, adding a solvent DMSO with equimultiple diluting, selecting Plinabulin (dehydro-phenylahistin) as a positive drug, setting 3 duplicate wells in each group, and culturing in an incubator at temperature of 37° C. under 5% CO2 saturated humidity for 24 h. 3) Absorbing the culture medium after 24 h, and washing with PBS for 3 times; fixing with 4% paraformaldehyde for 30 min, absorbing paraformaldehyde, and washing with PBS for 3 times; sealing with 0.3% Triton X-100 and 5% BSA for 30 min, absorbing, and washing with PBS for 3 times; adding Tubulin antibody (mouse antibody, diluting in a ratio of 1:200), and staying overnight at temperature of 4° C.; absorbing, and washing with PBS for 3 times; adding DyLight 488-goat anti mouse IgG (diluting in a ratio of 1:1000), and placing at room temperature for 90 min 4) Photographing analysis of high content imaging analysis system

SMILES | Inhibition ratio (%) ([1]; A431, concentration 12.5 nM) | activity of inhibiting tumors compared with positive control [1] | Inhibition ratio (%) ([2]; concentration 12.5 nM) | activity of inhibiting tumors compared with positive control [2] | Alexa488 stained fluorescence intensity of microtubulin in the cells [3] | microtubulin distribution and cellular morphology [3] | Alexa488 fluorescence intensity compared with the positive control Plinabulin [3] | Inhibition ratio (%) ([1]; A431, concentration 6.25 nM) | Inhibition ratio (%) ([2]; concentration 6.25 nM)
[2H]/C(c1nc[nH]c1C(C)(C)C)=c1/[nH]c(=O)/c(=C/c2c([2H])c([2H])c([2H])c([2H])c2[2H])[nH]c1=O [Compound 1, (3Z,6Z)-3-(phenyl-2,3,4,5,6-d5)-methylene-6-((5-(tert-butyl)-1H-imidazol-4-yl)methylene-d)piperazine-2,5-dione] | 95.04% | close to that of the positive control Plinabulin | 86.46% | close to that of the positive control Plinabulin | obviously enhanced | aggregation in microtubulin and a significant change in cellular morphology | higher than the positive control in the effect |  | 
[2H]/C(c1ccccc1)=c1/[nH]c(=O)/c(=C(\[2H])c2nc[nH]c2C(C)(C)C)[nH]c1=O [Compound 2, (3Z,6Z)-3-(phenylmethylene-d)-6-((5-(tert-butyl)-1H-imidazol-4-yl)methylene-d)piperazine-2,5-dione] | 94.11% | close to that of the positive control Plinabulin | 79.65% | close to that of the positive control Plinabulin | obviously enhanced | aggregation in microtubulin and a significant change in cellular morphology | higher than the positive control in the effect |  | 
[2H]/C(c1nc[nH]c1C(C)(C)C)=c1/[nH]c(=O)/c(=C/c2ccccc2)[nH]c1=O [Compound 3, (3Z,6Z)-3-(phenylmethylene)-6-((5-(tert-butyl)-1H-imidazol-4-yl)methylene-d)piperazine-2,5-dione] | 93.79% | close to that of the positive control Plinabulin | 86.09% | close to that of the positive control Plinabulin | obviously enhanced | aggregation in microtubulin and a significant change in cellular morphology | higher than the positive control in the effect |  | 
[2H]/C(c1ccccc1)=c1/[nH]c(=O)/c(=C/c2nc[nH]c2C(C)(C)C)[nH]c1=O [Compound 4, (3Z,6Z)-3-(phenylmethylene-d)-6-((5-(tert-butyl)-1H-imidazol-4-yl)methylene)piperazine-2,5-dione] | 91.85% | close to that of the positive control Plinabulin | 82.33% | close to that of the positive control Plinabulin |  |  |  | 53.90% | 16.04%
[2H]c1c([2H])c([2H])c(/C=c2\[nH]c(=O)/c(=C/c3nc[nH]c3C(C)(C)C)[nH]c2=O)c([2H])c1[2H] [Compound 5, (3Z,6Z)-3-(phenyl-2,3,4,5,6-d5)-methylene-6-((5-(tert-butyl)-1H-imidazol-4-yl)methylene)piperazine-2,5-dione] | 66.00% | close to that of the positive control Plinabulin | 16.86% | close to that of the positive control Plinabulin |  |  |  |  | 
[2H]/C(c1c([2H])c([2H])c([2H])c([2H])c1[2H])=c1/[nH]c(=O)/c(=C/c2nc[nH]c2C(C)(C)C)[nH]c1=O [Compound 6, (3Z,6Z)-3-(phenyl-2,3,4,5,6-d5)-methylene-d-6-((5-(tert-butyl)-1H-imidazol-4-yl)methylene)piperazine-2,5-dione] | 79.28% | close to that of the positive control Plinabulin | 73.40% | close to that of the positive control Plinabulin |  |  |  | 16.17% | 7.70%
[2H]/C(c1nc[nH]c1C(C)(C)C)=c1/[nH]c(=O)/c(=C(\[2H])c2c([2H])c([2H])c([2H])c([2H])c2[2H])[nH]c1=O [Compound 7, (3Z,6Z)-3-(phenyl-2,3,4,5,6-d5)-methylene-d-6-((5-(tert-butyl)-1H-imidazol-4-yl)methylene-d)piperazine-2,5-dione] | 87.73% | close to that of the positive control Plinabulin | 64.49% | close to that of the positive control Plinabulin |  |  |  |  | 
CC(C)(C)c1[nH]cnc1/C=c1\[nH]c(=O)/c(=C/c2ccccc2)[nH]c1=O [Plinabulin, reference compound] | 91.81% |  | 79.69% |  | obviously enhanced | aggregation in microtubulin and a significant change in cellular morphology |  | 63.25% | 13.75%
